# Measured values taken from ChEMBL document CHEMBL1201862, “PubChem BioAssay data set” (2004).
#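 Test compounds were applied to cells in 96-well plates for 48 hours at 5 doses. GI50: concentration for 50% inhibition of growth.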 Activity calls are given as the source filed them. Rule as the data show it: active = GI50 up to about 1.1 µM and inactive = higher.
# Experiments:
# Assay in all cases: growth of human tumour cells (NCI), 48 h
# U-251 = tested on: U-251
# A498 = tested on: A498
# OVCAR-5 = tested on: OVCAR-5
# CCRF-CEM = tested on: CCRF-CEM
# UACC-257 = tested on: UACC-257
# XF498 = tested on: XF498
# NCI-H460 = tested on: NCI-H460
# LOX IMVI = tested on: LOX IMVI
# Malme-3M = tested on: Malme-3M
# HOP-18 = tested on: HOP-18
# DLD-1 = tested on: DLD-1
# M14 = tested on: M14
# MOLT-4 = tested on: MOLT-4
# SNB-19 = tested on: SNB-19
# NCI-H23 = tested on: NCI-H23
# M19-MEL = tested on: M19-MEL
# UO-31 = tested on: UO-31
# HOP-92 = tested on: HOP-92
# 786-0 = tested on: 786-0
# SK-MEL-2 = tested on: SK-MEL-2
# TK-10 = tested on: TK-10
# OVCAR-4 = tested on: OVCAR-4
# CAKI-1 = tested on: CAKI-1
# UACC-62 = tested on: UACC-62
# SNB-75 = tested on: SNB-75
# SK-MEL-28 = tested on: SK-MEL-28
# ACHN = tested on: ACHN
# IGROV-1 = tested on: IGROV-1
# KM12 = tested on: KM12
# A549 = tested on: A549
# COLO 205 = tested on: COLO 205
# HOP-62 = tested on: HOP-62
# SF-268 = tested on: SF-268
# SF-295 = tested on: SF-295
# SN12C = tested on: SN12C
# SK-MEL-5 = tested on: SK-MEL-5
# DMS-114 = tested on: DMS-114
# EKVX = tested on: EKVX
# RPMI-8226 = tested on: RPMI-8226
# HT-29 = tested on: HT-29
# SF-539 = tested on: SF-539
# SW-620 = tested on: SW-620
# HCT-15 = tested on: HCT-15
# HCC 2998 = tested on: HCC 2998
# DMS-273 = tested on: DMS-273
# OVCAR-3 = tested on: OVCAR-3
# HCT-116 = tested on: HCT-116
# RXF 631 = tested on: RXF 631
# NCI-H226 = tested on: NCI-H226
# K562 = tested on: K562
# SNB-78 = tested on: SNB-78
# SK-OV-3 = tested on: SK-OV-3
# KM-20L2 = tested on: KM-20L2
# OVCAR-8 = tested on: OVCAR-8
# RXF 393 = tested on: RXF 393
# HL-60 = tested on: HL-60
# NCI-H522 = tested on: NCI-H522
# LXFL 529 = tested on: LXFL 529
compound,measurement,setting,value
O=c1[nH]nc2ccccc2c1Cl,GI50,U-251,15.8 µM (inactive)
same,GI50,A498,17.5 µM (inactive)
same,GI50,OVCAR-5,18.3 µM (inactive)
same,GI50,CCRF-CEM,6.14 µM (inactive)
same,GI50,UACC-257,10.2 µM (inactive)
same,GI50,XF498,14.5 µM (inactive)
same,GI50,NCI-H460,18.5 µM (inactive)
same,GI50,LOX IMVI,17.6 µM (inactive)
same,GI50,Malme-3M,16.2 µM (inactive)
same,GI50,HOP-18,15.7 µM (inactive)
same,GI50,DLD-1,10.4 µM (inactive)
same,GI50,M14,12.3 µM (inactive)
same,GI50,MOLT-4,14 µM (inactive)
same,GI50,SNB-19,16.1 µM (inactive)
same,GI50,NCI-H23,15.1 µM (inactive)
same,GI50,M19-MEL,6.92 µM (inactive)
same,GI50,UO-31,15 µM (inactive)
same,GI50,HOP-92,3.08 µM (inactive)
same,GI50,786-0,14.6 µM (inactive)
same,GI50,SK-MEL-2,17.3 µM (inactive)
same,GI50,TK-10,18 µM (inactive)
same,GI50,OVCAR-4,11.2 µM (inactive)
same,GI50,CAKI-1,3.18 µM (inactive)
same,GI50,UACC-62,12.8 µM (inactive)
same,GI50,SNB-75,10.7 µM (inactive)
same,GI50,SK-MEL-28,> 10 µM (inactive)
same,GI50,ACHN,16.3 µM (inactive)
same,GI50,IGROV-1,12.6 µM (inactive)
same,GI50,KM12,9.44 µM (inactive)
same,GI50,A549,29.3 µM (inactive)
same,GI50,COLO 205,11.4 µM (inactive)
same,GI50,HOP-62,21 µM (inactive)
same,GI50,SF-268,17.8 µM (inactive)
same,GI50,SF-295,20.5 µM (inactive)
same,GI50,SN12C,17.6 µM (inactive)
same,GI50,SK-MEL-5,> 10 µM (inactive)
same,GI50,DMS-114,4.89 µM (inactive)
same,GI50,EKVX,4.29 µM (inactive)
same,GI50,RPMI-8226,3.13 µM (inactive)
same,GI50,HT-29,6.68 µM (inactive)
same,GI50,SF-539,15.6 µM (inactive)
same,GI50,SW-620,13.8 µM (inactive)
same,GI50,HCT-15,6.41 µM
same,GI50,HCC 2998,1.52 µM (inactive)
same,GI50,DMS-273,16.3 µM (inactive)
same,GI50,OVCAR-3,2.65 µM (inactive)
same,GI50,HCT-116,16.3 µM (inactive)
same,GI50,RXF 631,12.9 µM (inactive)
same,GI50,NCI-H226,24.6 µM (inactive)
same,GI50,K562,4.24 µM (inactive)
same,GI50,SNB-78,13.3 µM (inactive)
same,GI50,SK-OV-3,17.7 µM (inactive)
same,GI50,KM-20L2,14.6 µM (inactive)
same,GI50,OVCAR-8,21.2 µM (inactive)
CC(C)(C)c1cc(CCC(=O)Nc2ccc(Cl)cc2)nc(S)n1,GI50,U-251,> 100 µM (inactive)
same,GI50,OVCAR-5,> 100 µM (inactive)
same,GI50,CCRF-CEM,> 100 µM (inactive)
same,GI50,RXF 393,> 100 µM (inactive)
same,GI50,UACC-257,> 100 µM (inactive)
same,GI50,XF498,> 100 µM (inactive)
same,GI50,NCI-H460,> 100 µM (inactive)
same,GI50,LOX IMVI,> 100 µM (inactive)
same,GI50,Malme-3M,> 100 µM (inactive)
same,GI50,HOP-18,> 100 µM (inactive)
same,GI50,DLD-1,> 100 µM (inactive)
same,GI50,M14,> 100 µM (inactive)
same,GI50,MOLT-4,> 100 µM (inactive)
same,GI50,SNB-19,> 100 µM (inactive)
same,GI50,NCI-H23,> 100 µM (inactive)
same,GI50,M19-MEL,> 100 µM (inactive)
same,GI50,UO-31,> 100 µM (inactive)
same,GI50,786-0,> 100 µM (inactive)
same,GI50,SK-MEL-2,> 100 µM (inactive)
same,GI50,TK-10,> 100 µM (inactive)
same,GI50,OVCAR-4,> 100 µM (inactive)
same,GI50,CAKI-1,> 100 µM (inactive)
same,GI50,UACC-62,> 100 µM (inactive)
same,GI50,SNB-75,> 100 µM (inactive)
same,GI50,HL-60,> 100 µM (inactive)
same,GI50,SK-MEL-28,> 100 µM (inactive)
same,GI50,NCI-H522,> 100 µM (inactive)
same,GI50,ACHN,> 100 µM (inactive)
same,GI50,IGROV-1,> 100 µM (inactive)
same,GI50,KM12,> 100 µM (inactive)
same,GI50,A549,> 100 µM (inactive)
same,GI50,COLO 205,> 100 µM (inactive)
same,GI50,HOP-62,> 100 µM (inactive)
same,GI50,SF-268,> 100 µM (inactive)
same,GI50,SF-295,> 100 µM (inactive)
same,GI50,SN12C,> 100 µM (inactive)
same,GI50,SK-MEL-5,> 100 µM (inactive)
same,GI50,DMS-114,> 100 µM (inactive)
same,GI50,EKVX,> 100 µM (inactive)
same,GI50,RPMI-8226,> 100 µM (inactive)
same,GI50,HT-29,> 100 µM (inactive)
same,GI50,SF-539,> 100 µM (inactive)
same,GI50,SW-620,> 100 µM (inactive)
same,GI50,HCT-15,> 100 µM
same,GI50,HCC 2998,> 100 µM (inactive)
same,GI50,DMS-273,> 100 µM (inactive)
same,GI50,OVCAR-3,> 100 µM (inactive)
same,GI50,RXF 631,> 100 µM (inactive)
same,GI50,LXFL 529,> 100 µM (inactive)
same,GI50,NCI-H226,> 100 µM (inactive)
same,GI50,K562,> 100 µM (inactive)
same,GI50,SK-OV-3,> 100 µM (inactive)
same,GI50,KM-20L2,> 100 µM (inactive)
same,GI50,OVCAR-8,> 100 µM (inactive)
NC(=O)n1ncc(Cl)c(Cl)c1=O,GI50,U-251,> 100 µM (inactive)
same,GI50,A498,> 100 µM (inactive)
same,GI50,OVCAR-5,> 100 µM (inactive)
same,GI50,CCRF-CEM,> 100 µM (inactive)
same,GI50,UACC-257,> 100 µM (inactive)
same,GI50,XF498,> 100 µM (inactive)
same,GI50,NCI-H460,> 100 µM (inactive)
same,GI50,Malme-3M,> 100 µM (inactive)
same,GI50,HOP-18,> 100 µM (inactive)
same,GI50,DLD-1,> 100 µM (inactive)
same,GI50,M14,> 100 µM (inactive)
same,GI50,SNB-19,> 100 µM (inactive)
same,GI50,NCI-H23,> 100 µM (inactive)
same,GI50,M19-MEL,> 100 µM (inactive)
same,GI50,UO-31,> 100 µM (inactive)
same,GI50,HOP-92,> 100 µM (inactive)
same,GI50,786-0,> 100 µM (inactive)
same,GI50,SK-MEL-2,> 100 µM (inactive)
same,GI50,TK-10,> 100 µM (inactive)
same,GI50,OVCAR-4,> 100 µM (inactive)
same,GI50,CAKI-1,> 100 µM (inactive)
same,GI50,UACC-62,> 100 µM (inactive)
same,GI50,SNB-75,> 100 µM (inactive)
same,GI50,HL-60,95.3 µM (inactive)
same,GI50,SK-MEL-28,> 100 µM (inactive)
same,GI50,NCI-H522,> 100 µM (inactive)
same,GI50,ACHN,> 100 µM (inactive)
same,GI50,IGROV-1,> 100 µM (inactive)
same,GI50,KM12,> 100 µM (inactive)
same,GI50,A549,> 100 µM (inactive)
same,GI50,COLO 205,> 100 µM (inactive)
same,GI50,HOP-62,> 100 µM (inactive)
same,GI50,SF-268,> 100 µM (inactive)
same,GI50,SF-295,> 100 µM (inactive)
same,GI50,SN12C,> 100 µM (inactive)
same,GI50,SK-MEL-5,> 100 µM (inactive)
same,GI50,DMS-114,> 100 µM (inactive)
same,GI50,EKVX,> 100 µM (inactive)
same,GI50,HT-29,> 100 µM (inactive)
same,GI50,SF-539,> 100 µM (inactive)
same,GI50,SW-620,> 100 µM (inactive)
same,GI50,HCT-15,> 100 µM
same,GI50,DMS-273,> 100 µM (inactive)
same,GI50,OVCAR-3,> 100 µM (inactive)
same,GI50,HCT-116,> 100 µM (inactive)
same,GI50,RXF 631,> 100 µM (inactive)
same,GI50,LXFL 529,> 100 µM (inactive)
same,GI50,NCI-H226,> 100 µM (inactive)
same,GI50,K562,> 100 µM (inactive)
same,GI50,SNB-78,> 100 µM (inactive)
same,GI50,SK-OV-3,> 100 µM (inactive)
same,GI50,KM-20L2,> 100 µM (inactive)
same,GI50,OVCAR-8,> 100 µM (inactive)
